Experimental findings from patent US10654845B2, “2-(het)aryl-substituted fused bicyclic heterocycle derivatives as pesticides” (BAYER CROPSCIENCE AKTIENGESELLSCHAFT, priority 2015, dated 2020) are described below.

One data set relates to Phaedon cochleariae. Nature of the data set: Phaedon cochleariae spray test. The data set is classed as in vivo. The following applies: after 7 days, beetle larvae killed; for pest or weed control at 500 g/ha: Phaedon cochleariae, 168 h, read-out: efficacy in %. The procedure: Phaedon cochleariae-Spray Test
Solvent: 78.0 parts by weight of acetone
(§1) • 1.5 parts by weight of dimethylformamide Emulsifier: alkylaryl polyglycol ether
(§2) To produce a suitable preparation of active compound, 1 part by weight of active compound is dissolved using the stated parts by weight of solvent and made up with water containing an emulsifier concentration of 1000 ppm until the desired concentration is attained. To produce further test concentrations, the preparation is diluted with emulsifier-containing water.
After 7 days, the efficacy in % is determined. 100% means that all the beetle larvae have been killed; 0% means that no beetle larvae have been killed.

The nature of data set [1]: log P by HPLC on reversed-phase column (C18), EEC Directive 79/831 Annex V.A8. From the text: Called log P (HCOOH) in the table.
Called log P (neutral) in the table.

Another data set concerns Myzus persicae. Nature of the data set: Myzus persicae spray test (Chinese cabbage leaf discs). Type of data set: in vivo. The following applies: after 6 days, aphids killed. The procedure:
Myzus persicae Spray Test
Solvent: 78 parts by weight of acetone
as §1, §2
Discs of Chinese cabbage leaves (Brassica pekinensis) infested by all stages of the green peach aphid (Myzus persicae) are sprayed with an active compound preparation of the desired concentration.
After 6 days, the efficacy in % is determined. 100% means that all the aphids have been killed; 0% means that no aphids have been killed.

[2] abbreviates: reversed-phase HPLC column (C18), pH 2.7, logP-acidic, LC-MS acidic range, pH 2.7 (HCOOH), C18, 55° C.
The mark [3] stands for this setting: reversed-phase HPLC column (C18), pH 7.8, log P (neutral), preparation examples, neutral range, pH 7.8.
Setting [4] is: reversed-phase HPLC column (C18), pH 7.8, logP-neutral, LC-MS neutral range, pH 7.8, C18, 55° C.
[5] abbreviates: LC-MS acidic range, pH 2.7 (HCOOH), C18, 55° C.
[6] abbreviates: LC-MS neutral range, pH 7.8, C18, 55° C.

In general, chromatographic logP refers to a lipophilicity value derived from retention on a column. For the compound `CCS(=O)(=O)c1ccc(S(=O)(=O)CC)c(-c2nc3cc(C(F)(F)F)ncc3n2C)n1` [Example 15, 2-[3,6-Bis(ethylsulphonyl)pyridin-2-yl]-3-methyl-6-(trifluoromethyl)-3H-imidazo[4,5-c]pyridine], the pest or weed control at 500 g/ha in the data set with Phaedon cochleariae (500 g/ha) turned out to be 100%. For the same compound, the chromatographic logP came out at 2.31 in data set [1] (setting [2]), 2.27 in data set [1] (setting [3]) and 2.28 in data set [1] (setting [4]).

Consider `CCS(=O)(=O)c1ccc(Sc2ccccc2)nc1-c1nc2cc(C(F)(F)F)ncc2n1C` [Example 42], for which the logP-acidic in data set [1] (setting [5]) is given as 3.68. In data set [1] (setting [6]), the logP-neutral was found to be 3.64.

Turning to `CCS(=O)(=O)c1ccc(SCc2ccccc2)nc1-c1nc2cc(C(F)(F)F)ncc2n1C` [Example 30, 2-[6-(Benzylsulphanyl)-3-(ethylsulphonyl)pyridin-2-yl]-3-methyl-6-(trifluoromethyl)-3H-imidazo[4,5-c]pyridine], the values for the chromatographic logP in data set [1] (pH 2.7) and in data set [1] (pH 7.8) were 3.81 and 3.72, respectively.

`CCSc1ccc(NC(=O)C(F)(F)F)nc1-c1nc2cc(C(F)(F)F)ncc2n1C` [Example 6] registered an efficacy in % with Phaedon cochleariae (500 g/ha) of 100%. For the same compound, the logP-acidic in data set [1] (pH 2.7) is listed as 3.18.

Regarding `CCS(=O)(=O)c1ccc(SC)nc1-c1nc2cc(C(F)(F)F)ncc2n1C` [Example 28, 2-[3-(Ethylsulphonyl)-6-(methylsulphanyl)pyridin-2-yl]-3-methyl-6-(trifluoromethyl)-3H-imidazo[4,5-c]pyridine], the chromatographic logP in data set [1] (setting [2]) came to 2.81; in data set [1] (setting [3]) it was 2.75; in data set [1] (setting [4]), 2.75.

For `CCSc1ccc(F)nc1-c1nc2cc(C(F)(F)F)ncc2n1C` [Ex. XI-2, 2-[3-(Ethylsulphanyl)-6-fluoropyridin-2-yl]-3-methyl-6-(trifluoromethyl)-3H-imidazo[4,5-c]pyridine], the chromatographic logP in data set [1] (setting [3]) was 2.73.

The compound `CCS(=O)(=O)c1ccc(S(=O)(=O)NC)nc1-c1nc2cc(C(F)(F)F)ncc2n1C` [Example 47] returned a logP-acidic in data set [1] (pH 2.7) of 2.15. In data set [1] (pH 7.8), this compound displayed a logP-neutral of 2.08.

As to `Cn1c(-c2nc(F)ccc2F)nc2cc(C(F)(F)F)ncc21` [Ex. IX-2, 2-(3,6-Difluoropyridin-2-yl)-3-methyl-6-(trifluoromethyl)-3H-imidazo[4,5-c]pyridine], the chromatographic logP in data set [1] (setting [3]) stood at 2.11.

For `CCS(=O)(=O)c1ccc([S+](C)[O-])nc1-c1nc2cc(C(F)(F)F)ncc2n1C` (stereo not shown) [Example 44], the efficacy in % in the data set with Myzus persicae (500 g/ha) came to 90%.

`CCS(=O)(=O)c1ccc(C(=O)O)nc1-c1nc2cc(C(F)(F)F)ncc2n1C` [5-(Ethylsulphonyl)-6-[3-methyl-6-(trifluoromethyl)-3H-imidazo[4,5-c]pyridin-2-yl]pyridine-2-carboxylic acid] had a chromatographic logP in data set [1] (setting [3]) of 0.76.

In data set [1] (pH 2.7), `CCS(=O)(=O)c1ccc(Oc2cc(C(F)(F)F)n[nH]2)nc1-c1nc2cc(C(F)(F)F)ncc2n1C` [Example 17] registered a logP-acidic of 2.77. Also, the logP-neutral in data set [1] (pH 7.8) is listed as 2.69.

Turning to `CCS(=O)(=O)c1ccc(S(=O)(=O)N(C)C)nc1-c1nc2cc(C(F)(F)F)ncc2n1C` [Example 50], the logP-acidic in data set [1] (pH 2.7) turned out to be 2.54. Moreover, the logP-neutral in data set [1] (pH 7.8) amounted to 2.47.

For `CCSc1ccc(NC(=O)c2ccccc2)nc1-c1nc2cc(C(F)(F)F)ncc2n1C` [Example 19], the logP-acidic in data set [1] (pH 2.7) is on record as 3.36.

For `CCS(=O)(=O)c1ccc([S+]([O-])Cc2ccccc2)nc1-c1nc2cc(C(F)(F)F)ncc2n1C` (stereo not shown) [Example 39], in data set [1] (pH 2.7), the logP-acidic is given as 2.66. For the same compound, the logP-neutral in data set [1] (pH 7.8) is on record as 2.66.

As to `CCS(=O)(=O)Nc1ccc(S(=O)(=O)CC)c(-c2nc3cc(C(F)(F)F)ncc3n2C)n1` [Example 59], the efficacy in % in the data set with Myzus persicae (100 g/ha) is on record as 100%. The logP-acidic in data set [1] (pH 2.7) amounted to 2.08. In addition, the logP-neutral in data set [1] (pH 7.8) came out at 0.90.

In the case of `CCS(=O)(=O)c1ccc(S(=O)(=O)NC(C)C)nc1-c1nc2cc(C(F)(F)F)ncc2n1C` [Example 49, 5-(Ethylsulphonyl)-N-isopropyl-6-[3-methyl-6-(trifluoromethyl)-3H-imidazo[4,5-c]pyridin-2-yl]pyridine-2-sulphonamide], the chromatographic logP in data set [1] (setting [2]) came to 2.56; in data set [1] (setting [3]) it was 2.49; in data set [1] (setting [4]), 2.49.

As for `CCS(=O)(=O)c1ccc(C(=O)OC)nc1-c1nc2cc(C(F)(F)F)ncc2n1C` [Example 12, Methyl 5-(ethylsulphonyl)-6-[3-methyl-6-(trifluoromethyl)-3H-imidazo[4,5-c]pyridin-2-yl]pyridine-2-carboxylate], the chromatographic logP in data set [1] (setting [2]), in data set [1] (setting [3]) and in data set [1] (setting [4]) was 2.17 each time.

Turning to `CCNC(=O)c1ccc(S(=O)(=O)CC)c(-c2nc3cc(C(F)(F)F)ncc3n2C)n1` [Example 32], in the data set on Phaedon cochleariae (500 g/ha), the efficacy in % came out at 100%. Besides, the logP-acidic in data set [1] (pH 2.7) turned out to be 2.29. Further, the logP-neutral in data set [1] (pH 7.8) worked out at 2.22.

`CCS(=O)(=O)c1ccc(N(S(C)(=O)=O)S(C)(=O)=O)nc1-c1nc2cc(C(F)(F)F)ncc2n1C` [Example 25] returned a logP-acidic in data set [1] (pH 2.7) of 2.47.

With `CCS(=O)(=O)c1ccc(S(C)(=O)=O)nc1-c1nc2cc(C(F)(F)F)ncc2n1C` [Example 45], the logP-acidic in data set [1] (pH 2.7) was determined as 2.08. In addition, the logP-neutral in data set [1] (pH 7.8) was 2.08.

`CCS(=O)(=O)c1ccc(C(N)=O)nc1-c1nc2cc(C(F)(F)F)ncc2n1C` [Example 46]: the efficacy in % in the data set with Phaedon cochleariae (500 g/ha) was 100%. For the same compound, in data set [1] (setting [5]), the logP-acidic is given as 1.78. Further, the logP-neutral in data set [1] (setting [6]) worked out at 1.68.

For the compound `CCS(=O)(=O)c1ccc(NC(=O)c2ccc(Cl)cc2)nc1-c1nc2cc(C(F)(F)F)ncc2n1C` [Example 73], the efficacy in % in the data set with Phaedon cochleariae (100 g/ha) is 100%. The compound also yielded a logP-acidic in data set [1] (pH 2.7) of 3.37. The compound further came in with a logP-neutral in data set [1] (pH 7.8) of 3.37.

For the compound `CCS(=O)(=O)c1ccc(NC(=O)c2cccnc2)nc1-c1nc2cc(C(F)(F)F)ncc2n1C` [Example 54], the efficacy in % in the data set with Phaedon cochleariae (500 g/ha) was determined as 100%. The compound also registered a logP-acidic in data set [1] (pH 2.7) of 2.08. Besides, the logP-neutral in data set [1] (pH 7.8) was 2.12.

Consider `CCS(=O)(=O)c1ccc(F)nc1-c1nc2cc(C(F)(F)F)ncc2n1C` [Ex. XIII-2, 2-[3-(Ethylsulphonyl)-6-fluoropyridin-2-yl]-3-methyl-6-(trifluoromethyl)-3H-imidazo[4,5-c]pyridine], for which, in data set [1] (setting [3]), the chromatographic logP came to 2.3.

On to `CCS(=O)(=O)c1ccc(NS(C)(=O)=O)nc1-c1nc2cc(C(F)(F)F)ncc2n1C` [Example 26, N-{5-(Ethylsulphonyl)-6-[3-methyl-6-(trifluoromethyl)-3H-imidazo[4,5-c]pyridin-2-yl]pyridin-2-yl}methanesulphonamide], for which the pest or weed control at 500 g/ha in the data set on Phaedon cochleariae (500 g/ha) stood at 100%. The results for the chromatographic logP in data set [1] (setting [2]), in data set [1] (setting [3]) and in data set [1] (setting [4]) were 1.92, 0.85 and 0.85, respectively.

Consider `CCS(=N)(=O)c1ccc(S(=O)(=O)CC)c(-c2nc3cc(C(F)(F)F)ncc3n2C)n1` (stereo not shown) [Example 41, 2-[6-(S-Ethylsulphonimidoyl)-3-(ethylsulphonyl)pyridin-2-yl]-3-methyl-6-(trifluoromethyl)-3H-imidazo[4,5-c]pyridine], for which the chromatographic logP in data set [1] (setting [2]) was found to be 1.78; in data set [1] (setting [3]), 1.79; in data set [1] (setting [4]), 1.79.

The compound `CCS(=O)(=O)c1ccc(NC(C)=O)nc1-c1nc2cc(C(F)(F)F)ncc2n1C` [N-[5-Ethylsulphonyl-6-[3-methyl-6-(trifluoromethyl)imidazo[4,5-c]pyridin-2-yl]-2-pyridyl]acetamide] returned a chromatographic logP in data set [1] (setting [3]) of 2.01.

For `CCSc1ccc(S(=O)(=O)CC)c(-c2nc3cc(C(F)(F)F)ncc3n2C)n1` [Example 5, 2-[6-(Ethylsulphanyl)-3-(ethylsulphonyl)pyridin-2-yl]-3-methyl-6-(trifluoromethyl)-3H-imidazo[4,5-c]pyridine], the values for the chromatographic logP in data set [1] (setting [2]), in data set [1] (setting [3]) and in data set [1] (setting [4]) were 3.19, 3.14 and 3.14, respectively.

In the data set on Phaedon cochleariae (500 g/ha), `CCS(=O)(=O)c1ccc(NC(=O)Cc2ccccc2)nc1-c1nc2cc(C(F)(F)F)ncc2n1C` [Example 68] registered an efficacy in % of 100%.

Turning to `CCSc1ccc(NC(=O)CC)nc1-c1nc2cc(C(F)(F)F)ncc2n1C` [Example 27], the efficacy in % with Phaedon cochleariae (500 g/ha) came out at 100%. The logP-acidic in data set [1] (pH 2.7) was determined as 2.73. This compound registered a logP-neutral in data set [1] (pH 7.8) of 2.62.

`CCSc1ccc(NC(=O)C2CC2)nc1-c1nc2cc(C(F)(F)F)ncc2n1C` [Example 1] returned an efficacy in % in the data set on Phaedon cochleariae (500 g/ha) of 100%. Also, in data set [1] (pH 2.7), the logP-acidic stood at 2.80. This compound returned a logP-neutral in data set [1] (pH 7.8) of 2.79.

The compound `CCNS(=O)(=O)c1ccc(S(=O)(=O)CC)c(-c2nc3cc(C(F)(F)F)ncc3n2C)n1` [Example 48] showed a logP-acidic in data set [1] (pH 2.7) of 2.36. The logP-neutral in data set [1] (pH 7.8) was determined as 2.30.

In turn, `CCCOc1ccc(S(=O)(=O)CC)c(-c2nc3cc(C(F)(F)F)ncc3n2C)n1` [Example 51] registered an efficacy in % in the data set with Phaedon cochleariae (500 g/ha) of 100%. In data set [1] (pH 2.7), this compound showed a logP-acidic of 3.37. The compound further displayed a logP-neutral in data set [1] (pH 7.8) of 3.36.

In data set [1] (pH 2.7), `CCNC(=S)c1ccc(S(=O)(=O)CC)c(-c2nc3cc(C(F)(F)F)ncc3n2C)n1` [Example 35] yielded a logP-acidic of 3.17. The logP-neutral in data set [1] (pH 7.8) came to 3.14.
